Laboratory results from patent US9932341B2, “Use of pyrazolopyrimidine derivatives for the treatment of PI3K-delta related disorders” (Incyte Corporation, priority 2013, dated 2018).
pIC50: −log10 of the molar value.

Target: PI3Kδ (Homo sapiens (Human), UniProt O00329)
Assay: PI3K Enzyme Assay (Example A2, [γ-33P]ATP filter plate)
Type: biochemical
Conditions: 1000 μM ATP, 50 μM PIP2
Protocol: PI3K isoforms α, β, δ and γ are purchased from Millipore (Bedford, Mass.).
Inhibitors are first diluted serially in DMSO and added to the plate wells before the addition of other reaction components. The final concentration of DMSO in the assay is 0.5%. The PI3K assays are carried out at room temperature in 20 mM MOPS, pH 6.7, 10 mM MgCl2, 5 mM DTT and CHAPS 0.03%. The reaction mixture is prepared containing 50 μM PIP2, kinase and varying concentration of inhibitors. Reactions are initiated by the addition of ATP containing 2.2 μCi [γ-^33P]ATP to a final concentration of 1000 μM. […] After drying by aspiration and blotting, the plate is air dried in an incubator at 37° C. overnight. Packard TopCount adapter (Millipore) is then attached to the plate followed with addition of 120 μL Microscint 20 scintillation cocktail (Perkin Elmer) in each well. […] IC50 determination is performed by fitting the curve of percent control activity versus the log of the inhibitor concentration using the GraphPad Prism 3.0 software.

Chain of PI3Kδ (O00329 whole entry): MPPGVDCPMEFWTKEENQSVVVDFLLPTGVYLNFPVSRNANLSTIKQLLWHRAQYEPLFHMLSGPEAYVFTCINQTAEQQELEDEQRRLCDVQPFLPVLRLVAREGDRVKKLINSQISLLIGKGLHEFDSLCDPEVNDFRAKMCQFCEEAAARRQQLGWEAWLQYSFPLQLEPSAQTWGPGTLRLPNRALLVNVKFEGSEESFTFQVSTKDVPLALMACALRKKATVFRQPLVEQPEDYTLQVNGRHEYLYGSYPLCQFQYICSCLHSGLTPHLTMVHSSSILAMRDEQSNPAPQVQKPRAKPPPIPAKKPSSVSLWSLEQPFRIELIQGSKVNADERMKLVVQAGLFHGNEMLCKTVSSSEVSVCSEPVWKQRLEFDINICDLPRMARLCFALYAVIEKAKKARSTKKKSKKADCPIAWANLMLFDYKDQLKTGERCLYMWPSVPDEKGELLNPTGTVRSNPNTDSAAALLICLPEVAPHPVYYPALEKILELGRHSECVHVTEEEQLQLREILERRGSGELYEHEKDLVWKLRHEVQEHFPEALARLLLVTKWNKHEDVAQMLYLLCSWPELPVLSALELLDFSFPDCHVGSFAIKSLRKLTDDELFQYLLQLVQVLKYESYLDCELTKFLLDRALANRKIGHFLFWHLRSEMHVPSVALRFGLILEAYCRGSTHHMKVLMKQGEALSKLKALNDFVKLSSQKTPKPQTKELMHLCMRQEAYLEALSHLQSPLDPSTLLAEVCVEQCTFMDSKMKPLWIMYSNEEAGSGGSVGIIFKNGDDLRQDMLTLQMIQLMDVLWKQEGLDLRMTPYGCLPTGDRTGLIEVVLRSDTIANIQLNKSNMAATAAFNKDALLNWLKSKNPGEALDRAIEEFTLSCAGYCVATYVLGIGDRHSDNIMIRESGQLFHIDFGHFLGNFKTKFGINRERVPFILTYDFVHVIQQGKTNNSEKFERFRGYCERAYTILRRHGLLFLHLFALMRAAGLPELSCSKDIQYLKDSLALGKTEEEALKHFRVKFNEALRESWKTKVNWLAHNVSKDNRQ
Chain of PI3Kδ (P27986 whole entry partner): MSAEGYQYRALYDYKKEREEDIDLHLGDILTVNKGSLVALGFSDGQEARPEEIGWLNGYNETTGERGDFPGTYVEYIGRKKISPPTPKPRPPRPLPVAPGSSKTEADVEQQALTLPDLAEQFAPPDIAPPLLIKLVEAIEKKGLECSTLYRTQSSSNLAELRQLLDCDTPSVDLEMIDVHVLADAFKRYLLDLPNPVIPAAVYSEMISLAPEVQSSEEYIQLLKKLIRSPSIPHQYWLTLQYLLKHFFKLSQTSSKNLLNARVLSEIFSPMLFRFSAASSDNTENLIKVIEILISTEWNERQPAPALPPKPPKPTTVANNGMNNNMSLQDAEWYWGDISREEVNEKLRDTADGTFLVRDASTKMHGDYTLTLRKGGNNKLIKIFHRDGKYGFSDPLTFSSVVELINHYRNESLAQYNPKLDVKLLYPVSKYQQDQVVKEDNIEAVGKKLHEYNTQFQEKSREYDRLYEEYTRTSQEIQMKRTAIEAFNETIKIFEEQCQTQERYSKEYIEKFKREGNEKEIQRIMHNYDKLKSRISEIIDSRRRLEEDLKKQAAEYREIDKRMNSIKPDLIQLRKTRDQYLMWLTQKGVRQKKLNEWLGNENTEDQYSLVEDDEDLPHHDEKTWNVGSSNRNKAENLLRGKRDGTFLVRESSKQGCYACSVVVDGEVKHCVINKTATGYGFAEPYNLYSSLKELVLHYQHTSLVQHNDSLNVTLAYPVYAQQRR

COc1c([C@@H](C)n2nc(C)c3c(N)ncnc32)cc(Cl)c(C#N)c1C1CN(C[C@H](C)O)C1 [Example 361, 4-((R)-1-(4-amino-3-methyl-1H-pyrazolo[3,4-d]pyrimidin-1-yl)ethyl)-6-chloro-2-(1-((S)-2-hydroxypropyl)azetidin-3-yl)-3-methoxybenzonitrile]
pIC50: < 6.30
